Patent US11882816B2, “Genetically engineered non-human mammal, construction method therefor and use thereof” (priority 2017, dated 2024)

Experiments:
homozygous mice [1] = test: Detection of cytokines and adhesion molecules in plasma of homozygous mice on HF diet with/without Dox, weekly MTX; assay type: in vivo
Source text: (§1) Homozygous mice, divided into 5 groups, are to fed with normal diet (Chow), high-fat diet (HF), high-fat diet plus boostin (HF+D), high-fat diet plus methotrexate (MTX) (HF+M), and high-fat diet plus boostin and methotrexate (HF+D+M). […] Homozygous mice are fed with normal diet (Chow) until 8 weeks old, and are fed with high fat diet HF (HF formula: 21.2% fat, 48.7% carbohydrate, 17.3% protein, and 0.25% cholesterol) for 8 weeks. The mice are divided in to groups, with each group having 15 mice. The HF group is fed with high-fat diet, and is injected with 100 μl of physiological saline weekly. The HF+M group is fed with high-fat diet, and is injected with methotrexate at a dose of 1 mg/kg once a week. The HF+D group is fed with high-fat diet and 1-2 mg/ml of doxycycline together with drinking water, and is injected with 100 μl of physiological saline weekly. The HF+D+M group is fed with high-fat diet, injected with methotrexate at a dose of 1 mg/kg once a week, and fed with doxycycline at 1-2 mg/ml together with drinking water. The blood pressure changes of the mice are periodically detected, and the data such as blood, blood lipids, blood pressure and death data etc. of the mice are collected.
As shown in FIGS. 11A to 11D, hypertension combined with a high-fat diet induce higher accumulation of triglycerides in the blood of mice. The inventors, using homozygous mice, have studied the effects of methotrexate (MTX) (an anti-inflammatory drug) on cardiovascular. Male homozygous mice are fed with HF diet with/without the addition of doxycycline (Dox), and are further randomized by intraperitoneal injection of MTX or control (vector) weekly. […] Hypertension combined with a high-fat diet induced higher mortality of mice, but if injected with methotrexate weekly, the survival rate of mice is increased at 8 weeks of co-administration (74% versus 43%, FIG. 12B).

homozygous mice [2] = test: Blood pressure of homozygous mice on HF diet with/without doxycycline, weekly MTX injection (non-invasive tail pressure measurement); assay type: in vivo; details: male homozygous mice, HF diet with/without Dox, MTX 1 mg/kg i.p. once a week; FIG. 12A
Experimental: The mice are divided into 3 groups for experiments, wild-type mice (Wt), homozygous mice (Hom) and heterozygous mice (Het), with each group having 15 mice. The mice are fed with normal diet (Chow) until 8 weeks old, and are administrated tetracycline analog doxycycline (1 to 2 mg/ml) with water. The blood pressure changes of mice are measured periodically. The method for measuring the blood pressure of mice is the method of non-invasive tail pressure measurement (iiTC Life Science, Woodland Hills, CA), wherein the mice are fixed in the sleeve and stay quiet in the sleeve for 10 minutes. Then the instrument is operated to measure the blood pressure at the tail of mice using […], three measurements are made for each operation, and the average is taken. Mice blood is collected, and body weight, heart weight, spleen weight, blood lipids and blood pressure of mice are measured.
(§2) Homozygous mice, divided into 5 groups, are to fed with normal diet (Chow), high-fat diet (HF), high-fat diet plus boostin (HF+D), high-fat diet plus methotrexate (MTX) (HF+M), and high-fat diet plus boostin and methotrexate (HF+D+M). […] The blood pressure changes of the mice are periodically detected, and the data such as blood, blood lipids, blood pressure and death data etc. of the mice are collected. […]

homozygous mice [3] = test: Quantification of ascending aortic atherosclerotic plaques in homozygous mice on HF diet with/without Dox, weekly MTX; assay type: in vivo; details: hypertensive (Dox) homozygous mice fed HF diet for 8 weeks, control 46%, P<0.05, FIGS. 12C-D
Source text: Homozygous mice (Hom) and ApoE knockout mice (KO) are used as controls, the experiment is employed by dividing the mice into four groups, each group has 15 mice, four groups being normal diet group (Chow), high fat diet group (HF), higher fat diet group (H-HF) and ultra-high fat diet group (CH-HF). The mice are fed with normal diet group (Chow) until 8 weeks old and then are fed with different high fat diet, respectively being HF feed (HF formula: 21.2% fat, 48.7% carbohydrate, 17.3% protein, and 0.25% cholesterol), H-HF feed (H-HF formula: 21.2% fat, 48.7% carbohydrate, 17.3% protein, and 1.25% cholesterol), and CH-HF feed (CH-HF formula: 21.2% fat, 48.7% carbohydrate, 17.3% protein, 1.25% cholesterol, and 0.5% cholic acid). After 8 weeks of treatment, collecting the blood of the mice, detecting the body weight, heart weight, spleen weight and blood lipids of the mice, and isolating the mice aorta for oil red O staining so as to quantify the atherosclerotic plaque content.
as §2

[4] = test system: patients suffering from long-term inflammatory diseases such as rheumatoid arthritis; details: clinically, low doses; patients with long-term inflammatory diseases such as rheumatoid arthritis; ref. [10]; cited from earlier work
[5] = test system: IL-6, ICAM-1, E-selectin, VCAM-1 expressions; details: general statement on the anti-inflammatory drug; cited from earlier work
homozygous mice [6] = test: Survival of hypertensive (Dox) homozygous mice on high-fat diet, weekly methotrexate injection; assay type: in vivo; details: hypertension (Dox) combined with high-fat diet, methotrexate 1 mg/kg weekly, at 8 weeks of co-administration, control 43%, FIG. 12B
Source text: as §1
As shown in FIGS. 11A to 11D, hypertension combined with a high-fat diet induce higher accumulation of triglycerides in the blood of mice. […]

[7] = hypertensive (Dox) homozygous mice, HF diet, MTX weekly, FIG. 12H-J
[8] = induced hypertensive MTX group compared with control group, FIGS. 12K-S

CN(Cc1cnc2nc(N)nc(N)c2n1)c1ccc(C(=O)N[C@@H](CCC(=O)O)C(=O)O)cc1 [MTX, methotrexate]
plasma concentration of MCP-5, intercellular adhesion molecule-1 and vascular cell adhesion molecules (homozygous mice [1]; homozygous mice having normal blood pressure, HF diet, MTX weekly, FIG. 12H-J): would not produce any effect | plasma concentration of intercellular adhesion molecule-1 (homozygous mice [1]; [7]): would significantly reduce | plasma concentration of monocyte chemoattractant protein (MCP)-5 (homozygous mice [1]; [7]): would significantly reduce | E-selectin level in plasma (homozygous mice [1]; [8]): decreased level | IL-1β level in plasma (homozygous mice [1]; [8]): decreased level | IL-6 level in plasma (homozygous mice [1]; [8]): decreased level | IL-17 level in plasma (homozygous mice [1]; [8]): decreased level | MCP-1 level in plasma (homozygous mice [1]; [8]): decreased level | P-selectin level in plasma (homozygous mice [1]; [8]): decreased level | granulocyte colony-stimulating factor level in plasma (homozygous mice [1]; [8]): decreased level | interferon-γ level in plasma (homozygous mice [1]; [8]): decreased level | tumor necrosis factor-α level in plasma (homozygous mice [1]; [8]): decreased level | blood pressure of the mice (homozygous mice [2]): would not alter | atherosclerotic lesions (homozygous mice [3]): 34% | cardiovascular risk in patients [4]: could reduce cardiovascular risk | IL-6, ICAM-1, E-selectin, VCAM-1 expressions [5]: can down-regulate | survival rate of mice (homozygous mice [6]): 74%
